From patent publication US6664069B1, “Use of GABAB receptor agonists in the screening of compounds which are reflux inhibitors” (AstraZeneca AB, priority 1996, dated 2003)

Tested on: transient lower esophageal sphincter relaxations (TLESR)
Experiment: Effect of GABAB receptor agonists on TLESR in dog after nutrient infusion and air insufflation
Format: in vivo
Details: for TLESR % of control at 90 min / TLESR % of control at 45 min: mean ± SEM; for TLESR % of control at 45 min: first 45 min
Description: Adult Labrador retriever dogs of both sexes (5 males, 3 females) weighing 20-30 kg were used. A cervical esophagostomy was formed to allow intubation. After a recovery period, the dogs were used in control experiments until a stable and reliable control response had been achieved. The dogs were used in other experiments before they were given the GABAB receptor agonists, but they were always allowed a wash-out period of at least two days during which time no drugs were administered. Every fourth experiment on each dog was a control experiment to ensure stability and reproducibility of the results.
The experiments were started at about 8 a.m. at which time the animals had been fasting for approximately 17 hrs. The dog was placed in a Pavlov stand to which it had been accustomed previously. A thin silicone catheter with a distal opening was introduced retrogradely through the esophagostomy into the pharynx to record swallowing. The catheter was perfused with air at approximately 2 ml/min. A multilumen assembly was positioned so that pressures could be recorded in the proximal stomach, LES and at four sites in the distal esophagus. The assembly was fitted with a 6 cm long sleeve to measure LES pressure reliably. Gastric and LES channels were perfused with distilled degassed water at 0.45 ml/min and esophageal channels at 0.1 ml/min. A low-compliance pneumohydraulic pump was used to achieve optimal perfusion conditions. Intraluminal pressures were measured with external pressure transducers. The signals were amplified and acquired using LabWindows/CVI software (version 3.1). Pressure calibrations were done at 0 and 100 mm Hg with the multilumen assemblies placed at a level slightly below the pressure transducers. The dog was positioned so that the average intragastric (i.g.) pressure approximated 0 mm Hg. An antimony pH-electrode was positioned 3 cm orad to the upper margin of the LES, and the signals were acquired as described above. Analysis of acquired signals was made using LabWindows software.
Baseline measurement was done for at least 10 min, and then vehicle (0.9% NaCl; 0.5 ml/kg) or a GABAB receptor agonist was given i.v. over 2 min. Ten min after the completion of the administration, nutrient was infused i.g. via the multilumen assembly at a rate of 100 ml/min (30 ml/kg). GABA was given as a continuous i.v. infusion which commenced 10 min before nutrient administration; and R, S,-baclofen was in some cases given intragastrically 30 min before nutrient. The nutrient contained 10% peptone (w/v), 5% Intralipid (v/v) and 5% D-glucose (w/v) and was acidified to pH 3.0 with HCl. Immediately after the infusion, air was insufflated at 40 ml/min to make up a total time of 90 min starting from the commencement of nutrient infusion. The dog was then extubated and a baseline measurement was done to ensure that no drift had occurred.
A TLESR was identified by the following criteria; The difference between LES and i.g. pressures was less than 2 mm Hg, the duration was more than 0.5 s and the relaxation was not triggered by primary peristalsis (i.e. by a pharyngeal signal). The rate of pressure drop was more than 10 mm Hg/s. Most, but not all, TLESR could also be detected aurally by a characteristic noise at the esophagostomy (i.e. belching). The total number of TLESR was calculated for the first 45 min period and entire experiment (90 min). The effect of GABAB receptor agonists was expressed relative to individual control data (n≧5). Each agonist was tested in at least two different dogs.

[1] = 1.5 mg/kg intragastric admin. 30 min before nutrient
[2] = 1.8 mg/kg as intravenous infusion over 100 min
[3] = 5.4 mg/kg as intravenous infusion over 100 min

Structure (SMILES) | TLESR % of control at 90 min (0.3 mg/kg intravenously) | TLESR % of control at 45 min (0.3 mg/kg intravenously) | TLESR % of control at 90 min (1.5 mg/kg intravenously) | TLESR % of control at 45 min (1.5 mg/kg intravenously) | TLESR % of control at 90 min (0.03 mg/kg intravenously) | TLESR % of control at 45 min (0.03 mg/kg intravenously) | also measured
NCC(CC(=O)O)c1ccc(Cl)cc1 (racemic) [R, S-baclofen, 4-amino-3-(4-chlorophenyl)butanoic acid] | 66 ± 8 % of control | 47 ± 6 % of control | 43 ± 19 % of control | 11 ± 6 % of control |  |  | TLESR % of control at 90 min [1]: 54 ± 12 % of control; TLESR % of control at 45 min [1]: 12 ± 6 % of control; behavioural side effects (high R,S-baclofen dose, disappeared approximately one hour after the administration): some sedation
CP(=O)(O)C[C@@H](O)CN [(3-amino-2-(S)-hydroxypropyl)methylphosphinic acid] | 38 ± 6 % of control | 0 ± 0 % of control |  |  | 65 ± 10 % of control | 53 ± 7 % of control | 
CP(=O)(O)CCCN [(3-aminopropyl)methylphosphinic acid] |  |  |  |  | 50 ± 17 % of control | 25 ± 4 % of control | TLESR % of control at 90 min (0.003 mg/kg intravenously): 76 ± 5 % of control; TLESR % of control at 45 min (0.003 mg/kg intravenously): 57 ± 12 % of control; TLESR % of control at 90 min (0.01 mg/kg intravenously): 39 ± 7 % of control; TLESR % of control at 45 min (0.01 mg/kg intravenously): 32 ± 8 % of control; TLESR % of control at 90 min (0.1 mg/kg intravenously): 33 ± 9 % of control; TLESR % of control at 45 min (0.1 mg/kg intravenously): 5 ± 5 % of control
NCCCC(=O)O [GABA, 4-aminobutanoic acid] |  |  |  |  |  |  | TLESR % of control at 90 min [2]: 61 ± 3 % of control; TLESR % of control at 45 min [2]: 62 ± 2 % of control; TLESR % of control at 90 min [3]: 54 ± 10 % of control; TLESR % of control at 45 min [3]: 57 ± 6 % of control
NC[C@H](CC(=O)O)c1ccc(Cl)cc1 [R-baclofen] | 40 ± 11 % of control | 36 ± 10 % of control |  |  |  |  | 
NC[C@@H](CC(=O)O)c1ccc(Cl)cc1 [S-baclofen] |  |  | 92 ± 10 % of control | 76 ± 10 % of control |  |  | 
